Broadly, the IC50 is the concentration needed to halve the response being measured.

IC50 data for 13 compounds are collected here from patent publication US20240218022A1, “ANTI-VISTA MACROCYCLIC PEPTIDES AND COMPOSITIONS” (BRISTOL-MYERS SQUIBB COMPANY, priority 2022, published 2024).

Structures are written as SMILES. Where two headings read alike, the source gives them in different places. Starred links: 1 amine or outer side, 2 acyl side, 3 side chain; linkers in the order of their positions; H or OH if unused. Positions of bridges follow the written chain, without caps; N, C: chain ends. Non-standard residues stand in square brackets, D forms with d. Residues, ends and D or L forms follow the SMILES beside them. ξ: configuration not given here. Phe(3-Me) = Cc1cccc(C[C@H](N)C(=O)O)c1; γGlu = O=C(O)[C@H](CCC(=O)[*:2])N[*:1]; 2Nal = N[C@@H](Cc1ccc2ccccc2c1)C(=O)O; βAsp = O=C(O)[C@H](CC(=O)[*:2])N[*:1]; Aad = N[C@@H](CCCC(=O)O)C(=O)O; Cit = NC(=O)NCCC[C@H](N)C(=O)O; Ile(3ξ) = CCC(C)[C@H](N)C(=O)O; NMeL = CN[C@@H](CC(C)C)C(=O)O; Ahp(2) = CCCCC[C@H](N)C(=O)O; NMeNle = CCCC[C@H](NC)C(=O)O; Tle = CC(C)(C)[C@H](N)C(=O)O; Pip = O=C(O)[C@@H]1CCCCN1; NHexGly = CCCCCCNCC(=O)O; Nle = CCCC[C@H](N)C(=O)O; Orn = NCCC[C@H](N)C(=O)O; Aun = NCCCCCCCCCCC(=O)O; AEEA = NCCOCCOCC(=O)O

In this test the target is T1, mouse VISTA (mVISTA) (Mus musculus, UniProt Q9D659).
T1 construct: expressed in transfected cells; host or cells: Human embryonic kidney 293T cells
T1 sequence (Q9D659 33-308): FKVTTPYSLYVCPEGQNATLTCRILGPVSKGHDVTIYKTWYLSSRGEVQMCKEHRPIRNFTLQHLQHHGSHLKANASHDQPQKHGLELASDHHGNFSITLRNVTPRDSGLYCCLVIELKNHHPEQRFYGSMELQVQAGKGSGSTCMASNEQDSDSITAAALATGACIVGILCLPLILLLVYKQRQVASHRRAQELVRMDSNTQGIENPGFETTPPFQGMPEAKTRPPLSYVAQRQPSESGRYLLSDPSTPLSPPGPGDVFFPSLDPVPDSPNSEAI
Nature of the test: Cell-Based Binding High-Content Assay For mVISTA (HC CBA mVISTA). Put shortly: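 Read-out: Alexa 647–streptavidin signal imaged on fixed, Hoechst-stained mVISTA-293T cells, with IC50 taken from a four-parameter logistic curve. Compounds competed with 2 nM biotinylated peptide for 30 min at room temperature, tested under both no-wash and wash (1 h compound, media exchange, 1 h) formats.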

The mark [1] stands for this setting: the 19th table, scaffold drawing 22, read-out: HC CBA mVISTA IC50.
The mark [2] stands for this setting: cell-based binding high-content assay, mVISTA, the 15th table, read-out: HC CBA mVISTA IC50.

`CCCCCCN1CC(=O)N[C@@H](Cc2ccc(O)cc2)C(=O)N[C@@H](CCCC)C(=O)N[C@@H](CC(N)=O)C(=O)N[C@@H](CCCNC(=N)N)C(=O)N(C)[C@@H](CCCC)C(=O)N[C@@H](CCCCC)C(=O)N(C)[C@@H](CC(C)C)C(=O)N[C@@H](C(C)CC)C(=O)N[C@@H](CO)C(=O)N[C@H](C(=O)N[C@@H](CC(=O)NCCOCCOCC(=O)NCCCCCCCCCCC(=O)O)C(=O)O)CSCC(=O)N[C@@H](Cc2ccccc2)C(=O)N[C@@H](Cc2c[nH]c3ccccc23)C(=O)N[C@@H](CC(=O)O)C1=O` (stereo partly shown) [Example 2178] ({CH2CO}-FWD[NHexGly]Y[Nle]NR[NMeNle][Ahp(2)][NMeL][Ile(3ξ)]SC[βAsp][AEEA][Aun]-OH; thioether N-14): where the note is “read-out: HC CBA mVISTA IC50”, the IC50 stood at 46.7 nM. Turning to `CCCCCCN1CC(=O)N[C@@H](Cc2ccc(O)cc2)C(=O)N[C@@H](CCCC)C(=O)N[C@@H](CC(N)=O)C(=O)N[C@@H](CCCNC(N)=O)C(=O)N(C)[C@@H](CCCC)C(=O)N[C@@H](CCCCC)C(=O)N2CCC[C@H]2C(=O)N[C@@H](C(C)(C)C)C(=O)N[C@@H](CO)C(=O)N[C@H](C(=O)NCC(N)=O)CSCC(=O)N[C@@H](Cc2ccccc2)C(=O)N[C@@H](Cc2c[nH]c3ccccc23)C(=O)N[C@@H](CC(=O)O)C1=O` [Example 1390] ({CH2CO}-FWD[NHexGly]Y[Nle]N[Cit][NMeNle][Ahp(2)]P[Tle]SCG-NH2; thioether N-14), the IC50 (read-out: HC CBA mVISTA IC50) was 25.2 nM. For `CCCCCCN1CC(=O)N[C@@H](Cc2ccc(O)cc2)C(=O)N[C@@H](CCCCC)C(=O)N[C@@H](CC(N)=O)C(=O)N[C@@H](CCCNC(=N)N)C(=O)N(C)[C@@H](CCCC)C(=O)N[C@@H](CCCCC)C(=O)N2CCC[C@H]2C(=O)N[C@@H](C(C)C)C(=O)N[C@@H](CC(=O)O)C(=O)N[C@H](C(=O)N[C@@H](CO)C(=O)O)CSCC(=O)N[C@@H](Cc2cccc(C)c2)C(=O)N[C@@H](Cc2c[nH]c3ccccc23)C(=O)N[C@@H](CC(=O)O)C1=O` [compound 1444] ({CH2CO}-[Phe(3-Me)]WD[NHexGly]Y[Ahp(2)]NR[NMeNle][Ahp(2)]PVDCS-OH; thioether N-14), the concentration for half-maximal inhibition (IC50) under setting [1] is 13.3 nM.

For `CCCCCCN1CC(=O)N[C@@H](Cc2ccc(O)cc2)C(=O)N[C@@H](CCCC)C(=O)N[C@@H](CC(N)=O)C(=O)N[C@@H](CCCNC(=N)N)C(=O)N(C)[C@@H](CCCC)C(=O)N[C@@H](CCCCC)C(=O)N2CCCC[C@H]2C(=O)N[C@@H](C(C)CC)C(=O)N[C@@H](CO)C(=O)N[C@H](C(=O)N[C@@H](CC(=O)NCCOCCOCC(=O)NCCCCCCCCCCC(=O)O)C(=O)O)CSCC(=O)N[C@@H](Cc2ccccc2)C(=O)N[C@@H](Cc2c[nH]c3ccccc23)C(=O)N[C@@H](CC(=O)O)C1=O` (stereo partly shown) [Example 2182] ({CH2CO}-FWD[NHexGly]Y[Nle]NR[NMeNle][Ahp(2)][Pip][Ile(3ξ)]SC[βAsp][AEEA][Aun]-OH; thioether N-14), the IC50 (read-out: HC CBA mVISTA IC50) was 30.9 nM. Same read-out and setting: in the case of `CCCCCCN1CC(=O)N[C@@H](Cc2ccc(O)cc2)C(=O)N[C@@H](CCCC)C(=O)N[C@@H](CC(N)=O)C(=O)N[C@@H](CCCNC(=N)N)C(=O)N[C@@H](CC(C)C)C(=O)N[C@@H](CCCCC)C(=O)N2CCC[C@H]2C(=O)N[C@@H](C(C)(C)C)C(=O)N[C@@H](CO)C(=O)N[C@H](C(=O)NCCOCCOCC(=O)N[C@@H](CCC(=O)NCCOCCOCC(=O)NCCCCCCCCCCC(=O)O)C(=O)O)CSCC(=O)N[C@@H](Cc2ccccc2)C(=O)N[C@@H](Cc2ccc(O)cc2)C(=O)N[C@@H](CC(=O)O)C1=O` [compound 2238] ({CH2CO}-FYD[NHexGly]Y[Nle]NRL[Ahp(2)]P[Tle]SC[AEEA][γGlu][AEEA][Aun]-OH; thioether N-14) it was 38 nM. As for `CCCCCCN1CC(=O)N[C@@H](Cc2ccc(O)cc2)C(=O)N[C@@H](CCCCC)C(=O)N[C@@H](CC(N)=O)C(=O)N[C@@H](CCCNC(=N)N)C(=O)N[C@@H](CC(C)C)C(=O)N[C@@H](CCCCC)C(=O)N2CCC[C@H]2C(=O)N[C@@H](C(C)C)C(=O)N[C@@H](CO)C(=O)N[C@H](C(=O)NCC(=O)O)CSCC(=O)N[C@@H](Cc2ccccc2)C(=O)N[C@@H](Cc2c[nH]c3ccccc23)C(=O)N[C@@H](CC(=O)O)C1=O` [Example 1357] ({CH2CO}-FWD[NHexGly]Y[Ahp(2)]NRL[Ahp(2)]PVSCG-OH; thioether N-14), for the setting “read-out: HC CBA mVISTA IC50”, the 50% inhibitory concentration (IC50) was 31.6 nM. In the case of `CCCCCCN1CC(=O)N[C@@H](Cc2ccc(O)cc2)C(=O)N[C@@H](CCCC(=O)O)C(=O)N[C@@H](CC(N)=O)C(=O)N[C@@H](CCCN)C(=O)N(C)[C@@H](CCCC)C(=O)N[C@@H](CCCCC)C(=O)N2CCC[C@H]2C(=O)N[C@@H](C(C)(C)C)C(=O)N[C@@H](CO)C(=O)N[C@H](C(=O)N[C@@H](CC(=O)NCCOCCOCC(=O)N[C@@H](CC(=O)O)C(=O)NCCOCCOCC(=O)NCCCCCCCCCCC(=O)O)C(=O)O)CSCC(=O)N[C@@H](Cc2ccccc2)C(=O)N[C@@H](Cc2ccc(O)cc2)C(=O)N[C@@H](CC(=O)O)C1=O` [compound 2056] ({CH2CO}-FYD[NHexGly]Y[Aad]N[Orn][NMeNle][Ahp(2)]P[Tle]SC[βAsp][AEEA]D[AEEA][Aun]-OH; thioether N-14), the half-maximal inhibitory concentration (IC50) (cell-based binding high-content assay, mVISTA, read-out: HC CBA miPr ISTA IC50) is 26.1 nM. Regarding `CCCCCCN1CC(=O)N[C@@H](Cc2ccc(O)cc2)C(=O)N[C@@H](CC(C)C)C(=O)N[C@@H](CC(N)=O)C(=O)N[C@@H](CCCNC(=N)N)C(=O)N[C@@H](CC(C)C)C(=O)N[C@@H](CCCCC)C(=O)N2CCC[C@H]2C(=O)N[C@@H](C(C)(C)C)C(=O)N[C@@H](CO)C(=O)N[C@H](C(=O)NCCOCCOCC(=O)N[C@@H](CCC(=O)NCCOCCOCC(=O)NCCCCCCCCCCC(=O)O)C(=O)O)CSCC(=O)N[C@@H](Cc2ccccc2)C(=O)N[C@@H](Cc2c[nH]c3ccccc23)C(=O)N[C@@H](CC(=O)O)C1=O` [compound 2230] ({CH2CO}-FWD[NHexGly]YLNRL[Ahp(2)]P[Tle]SC[AEEA][γGlu][AEEA][Aun]-OH; thioether N-14), for the setting “read-out: HC CBA mVISTA IC50”, the IC50 turned out to be 28.4 nM.

For the compound `CCCCCCN1CC(=O)N[C@@H](Cc2ccc(O)cc2)C(=O)N[C@@H](CCCC)C(=O)N[C@@H](CC(N)=O)C(=O)N[C@@H](CCCNC(=N)N)C(=O)N[C@@H](CC(C)C)C(=O)N[C@@H](CCCCC)C(=O)N2CCC[C@H]2C(=O)N[C@@H](C(C)C)C(=O)N[C@@H](CC(=O)O)C(=O)N[C@H](C(=O)N[C@@H](CO)C(=O)O)CSCC(=O)N[C@@H](Cc2cccc(C)c2)C(=O)N[C@@H](Cc2c[nH]c3ccccc23)C(=O)N[C@@H](CC(=O)O)C1=O` [compound 1424] ({CH2CO}-[Phe(3-Me)]WD[NHexGly]Y[Nle]NRL[Ahp(2)]PVDCS-OH; thioether N-14), the IC50 under setting [1] turned out to be 11.9 nM. `CCCCCCN1CC(=O)N[C@@H](Cc2ccc(O)cc2)C(=O)N[C@@H](CCCC)C(=O)N[C@@H](CC(=O)O)C(=O)N[C@@H](CCCNC(=N)N)C(=O)N[C@@H](CC(C)C)C(=O)N[C@@H](CCCCC)C(=O)N2CCC[C@H]2C(=O)N[C@@H](C(C)C)C(=O)N[C@@H](CC(=O)O)C(=O)N[C@H](C(=O)N[C@@H](CCC(=O)O)C(N)=O)CSCC(=O)N[C@@H](Cc2ccccc2)C(=O)N[C@@H](Cc2ccc(O)cc2)C(=O)N[C@@H](CC(=O)O)C1=O` [Example 1005] ({CH2CO}-FYD[NHexGly]Y[Nle]DRL[Ahp(2)]PVDCE-NH2; thioether N-14): for the setting “293T cells expressing mouse VISTA, competition with biotinylated peptide (2 nM), read-out: HC CBA mVISTA IC50”, the IC50 was determined as 12.7 nM.

Regarding `CCCCCCN1CC(=O)N[C@@H](Cc2ccc(O)cc2)C(=O)N[C@@H](CCCC)C(=O)N[C@@H](CC(N)=O)C(=O)N[C@@H](CCCNC(=N)N)C(=O)N[C@@H](CC(C)C)C(=O)N[C@@H](CCCCC)C(=O)N2CCC[C@H]2C(=O)N[C@@H](C(C)C)C(=O)N[C@@H](CC(=O)O)C(=O)N[C@H](C(=O)NCC(=O)O)CSCC(=O)N[C@@H](Cc2ccc3ccccc3c2)C(=O)N[C@@H](Cc2c[nH]c3ccccc23)C(=O)N[C@@H](CC(=O)O)C1=O` [compound 1229] ({CH2CO}-[2Nal]WD[NHexGly]Y[Nle]NRL[Ahp(2)]PVDCG-OH; thioether N-14), under setting [2], the half-maximal inhibitory concentration (IC50) turned out to be 13.2 nM.

In the case of `CCCCCCN1CC(=O)N[C@@H](Cc2ccc(O)cc2)C(=O)N[C@@H](CCCC)C(=O)N[C@@H](CC(=O)O)C(=O)N[C@@H](CCCNC(=N)N)C(=O)N(C)[C@@H](CCCC)C(=O)N[C@@H](CCCCC)C(=O)N2CCC[C@H]2C(=O)N[C@@H](C(C)C)C(=O)N[C@@H](CC(=O)O)C(=O)N[C@H](C(=O)N[C@@H](CC(=O)O)C(N)=O)CSCC(=O)N[C@@H](Cc2cccc(C)c2)C(=O)N[C@@H](Cc2ccc(O)cc2)C(=O)N[C@@H](CC(=O)O)C1=O` [compound 1448] ({CH2CO}-[Phe(3-Me)]YD[NHexGly]Y[Nle]DR[NMeNle][Ahp(2)]PVDCD-NH2; thioether N-14), the 50% inhibitory concentration (IC50) under setting [1] turned out to be 14.2 nM. Take `CCCCCCN1CC(=O)N[C@@H](Cc2ccc(O)cc2)C(=O)N[C@@H](CCCCC)C(=O)N[C@@H](CC(N)=O)C(=O)N[C@@H](CCCNC(=N)N)C(=O)N(C)[C@@H](CCCC)C(=O)N[C@@H](CCCCC)C(=O)N2CCC[C@H]2C(=O)N[C@@H](C(C)C)C(=O)N[C@@H](C(C)C)C(=O)N[C@H](C(=O)NCC(=O)O)CSCC(=O)N[C@@H](Cc2ccc3ccccc3c2)C(=O)N[C@@H](Cc2c[nH]c3ccccc23)C(=O)N[C@@H](CC(=O)O)C1=O` [compound 1250] ({CH2CO}-[2Nal]WD[NHexGly]Y[Ahp(2)]NR[NMeNle][Ahp(2)]PVVCG-OH; thioether N-14): the IC50 under setting [2] was determined as 22.1 nM.
